Data set [1] relates to MCF-7. Briefly: Western blot of autophagy and apoptosis markers. In kind it is cell-based, human. The conditions noted are these: for Beclin-1 and LC3B levels / Phosphorylation of AMPK and JNK / SQSTM1/p62 (autophagic flux): I.1f 80 µM 48 h, I.2f 30 µM 24 h.
In another data set the test system is CCRF-CEM. In words: cells. The settings on record: Homo sapiens, 48 h; for activity at 10 µM: read-out: Cell growth (%) CCRF-CEM; for GI50: read-out: GI50 CCRF-CEM; for CC50: read-out: LC50 CCRF-CEM; for IC (TGI): read-out: TGI CCRF-CEM.
Data set [2] deals with MCF-7. In words: Cell death (subdiploid cells), Apo-Direct kit TUNEL flow cytometry. In kind it is cell-based, human. The settings on record: 24 h, increasing doses (I.1f 10 to 80 µM). The protocol: For the MCF-7 cell line, both cell cycle analysis and the cell death percentage were determined using the Apo-Direct kit (BD Pharmingen) based on the TUNEL technique, according to the manufacturer’s instructions. Cells were seeded in 25 cm^2 flasks (3 × 10^6 for 24 h of treatment, 2 × 10^6 for 48 h and 10^6 for 72 h) treated with DMSO (negative control), 6 µM of camptothecin (positive control) and different concentrations of I.1f, I.2f and II.2d.
After treatment, cells were collected and fixed with 1% paraformaldehyde (Sigma) in PBS (pH = 7.4), incubated in ice for 40 min, collected by centrifugation, washed with PBS and incubated with 70% ethanol for 30 min at −20 °C. After fixation, cells were washed twice with PBS and incubated for 1 h at 37 °C with FITC dUTP-DNA Labeling Solution. Cells were then rinsed and incubated in the dark for 30 min at room temperature with PI/RNase staining buffer before being analyzed by flow cytometry (Coulter Epics XL, Beckman Coulter Flow cytometer). Then, cells were treated with compounds I.1f (80 µM), I.2f (30 µM) and II.2d (5 µM) at different times (from 8 to 72 h) following the same methodology.
Apoptosis and cell cycle arrest are typical mechanisms of action for many anticancer drugs, including selenocompounds [34, 35, 36]. In a first approach, the effect of the selected compounds on cell cycle progression and the induction of apoptosis was studied in MCF-7 cell cultures. Analyses were performed by flow cytometry using the Apo-Direct kit, based on the TUNEL technique under the conditions described by the manufacturer. The cells were treated with the corresponding compound at different concentrations and time points. Camptothecin was used as a positive control at 6 µM.
In general terms: A flow cytometer gives signals particle by particle.

The nature of data set [3]: DPPH radical scavenging assay. The conditions noted are these: 0.03 mg/mL, after 30 min. The protocol: The DPPH (1,1-diphenyl-2-picrylhydrazyl radical) assay measures the hydrogen donation ability of the antioxidant to convert the stable DPPH free radical into 1,1-diphenyl-2-(2,4,6-trinitrophenyl)-hydrazine. After radical reaction with the compounds, a decrease in the absorbance was detected at 517 nm, which is accompanied by a change of color from violet to light-yellow. The target compounds were dissolved in methanol to make 1 mg/mL stock solutions, which were diluted to five concentrations as test samples. Ascorbic acid was used as a standard, and the experiment was carried out on 96-well plates. The DPPH solution was prepared at a 100 µM concentration. For each test, 100 µL of DPPH solution was added to 100 µL of methanolic solution containing the tested derivatives, and the absorbance was determined at different time points. All the measurements were carried out in triplicate. Results were expressed as the percentage of the radical scavenged, calculated using the following formula:(1) % DPPH radical scavenging=Acontrol − Asample/Acontrol × 100 where Acontrol refers to the absorbance of the negative control, and Asample refers to the absorbance of the tested compounds. Results are expressed as a percentage of DPPH radical scavenged ± SEM.
. Ascorbic acid and Trolox were used as radical scavenger gold standards. […]. No correlation was found for either structure–radical scavenging activity or antitumor–radical scavenging activity, except for compound I.2f, one of the selected cytotoxic agents. To further confirm this antioxidant activity, three compounds (I.1e, I.1g and I.2i) were also evaluated as DPPH radical scavengers at a lower concentration of 0.003 mg/mL (Figure 3B).

A short description of data set [4]: MTT cytotoxicity in nonmalignant bronchial epithelium cells. Format: cell-based. The settings on record: human. In short, it runs like this:
(§1)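 184B5 cells grown in supplemented DMEM/F12, BEAS-2B in RPMI with 10% FBS. 1 × 10^4 cells/well exposed to increasing compound concentrations for 48 h at 37 °C, 5% CO2, then MTT 4 h and formazan dissolved in DMSO. At least 3 independent experiments in quadruplicate; cisplatin as reference.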

In another data set the test system is BEAS-2B. Described as above. In kind it is cell-based. The conditions noted are these: for GI50 / IC (TGI): Homo sapiens, BEAS-2B, 48 h; for GI50: read-out: GI50 BEAS-2B; for IC (TGI): read-out: TGI BEAS-2B; for Selectivity index (SI) = GI50 (BEAS-2B)/GI50 (HTB-54): lung. In outline:
as §1

Data set [5] deals with MCF-7. The conditions noted are these: read-out: GI50 MCF-7; 48 h, average ± SEM.
Where [6] appears, read: nonmalignant cells, 48 h, read-out: LC50 BEAS-2B.

SMILES strings stand for the structures. Read-outs that look alike come from different tables or passages of the source.

Experimental findings from paper PMC8069832, “New Amides and Phosphoramidates Containing Selenium: Studies on Their Cytotoxicity and Antioxidant Activities in Breast Cancer” (Antioxidants, 2021) are described below.

As usually defined, the GI50 is the concentration giving 50% growth inhibition. With `N#C[Se]c1ccc(NC(=O)c2ccc(C(F)(F)F)cc2)cc1` [I.2f], in the data set with MCF-7 [1], the “Beclin-1 and LC3B levels” value is reported as “increased levels”; the “Phosphorylation of AMPK and JNK” value was “induced JNK and AMPK phosphorylation”; the “SQSTM1/p62 (autophagic flux)” value was “downregulated”. Moreover, in the data set with CCRF-CEM, the activity at 10 µM worked out at 54.6%, the 50% growth inhibitory concentration (GI50) came to 7.3 ± 0.5 µM, the CC50 was > 100 µM and the IC (TGI) is > 100 µM. Also, in the data set on MCF-7 [2], the “Cell death (subdiploid cells)” value is reported as “provoked a significant increase in the number of death cells”. Further, the DPPH activity inhibition entry in data set [3] is “greater than 35%”. Moreover, the LC50 (50% lethal concentration) in data set [4] (setting [6]) worked out at 73.2 µM. Besides, in the data set with BEAS-2B (nonmalignant cells), the GI50 was found to be 20.8 µM and the IC (TGI) is 47 µM. The “Selectivity index (SI) = GI50 (BEAS-2B)/GI50 (HTB-54)” value (“Selectivity index (SI) = GI50” below) with BEAS-2B turned out to be 0.70. For the same molecule, in the data set on MCF-7 [5], the GI50 came to 0.9 µM.

For the molecule `CCOP(=O)(Nc1ccc([Se]C#N)cc1)OCC` [II.2d], in the data set on MCF-7 [1], the “BAX, p21, p53 levels” value is reported as “Significantly increased levels” and the Bcl-2 levels result is “decreased levels”. Also, in the data set on CCRF-CEM, the activity at 10 µM is -87.4%, the GI50 came out at 0.2 µM, the CC50 was 0.9 ± 0.1 µM and the IC (TGI) stood at 0.5 µM. Besides, the “Cell death (subdiploid cells)” value in the data set with MCF-7 [2] was “provoked a significant increase in the number of death cells”. In addition, the LC50 (50% lethal concentration) at 48 h in data set [4] (setting [6]) was 8.3 µM. Moreover, in the data set on BEAS-2B, the concentration for 50% growth inhibition (GI50) amounted to 4.65 µM, the IC (TGI) was determined as 6.59 µM and the “Selectivity index (SI) = GI50” value came out at 2.85. Further, the concentration for 50% growth inhibition (GI50) in the data set on MCF-7 [5] is 0.9 ± 0.1 µM.

Consider `O=C(Nc1ccc([Se][Se]c2ccc(NC(=O)c3ccc(C(F)(F)F)cc3)cc2)cc1)c1ccc(C(F)(F)F)cc1` [I.1f], for which, in the data set with MCF-7 [1], the “Beclin-1 and LC3B levels” value is “increased levels”; the “Phosphorylation of AMPK and JNK” value is “induced JNK and AMPK phosphorylation”; the “SQSTM1/p62 (autophagic flux)” value is listed as “downregulated”. In the data set on CCRF-CEM, the activity at 10 µM is 36.5%, the GI50 was found to be 4.7 ± 0.7 µM, the CC50 worked out at 79.2 ± 4.1 µM and the IC (TGI) is 31.7 ± 1.8 µM. Also, in the data set with MCF-7 [2], the “Cell death (subdiploid cells)” value is reported as “did not stimulate cell death”. Also, the LC50 (50% lethal concentration) at 48 h in data set [4] came to 72.9 µM. In the data set with BEAS-2B (nonmalignant cells), the GI50 is 10.7 µM and the IC (TGI) is 41.8 µM. In the data set with BEAS-2B, the “Selectivity index (SI) = GI50” value came out at 0.42.
